Measured values reported in PubChem BioAssay AID1794813.
Values joined by “and” are separate entries in the source; they are usually repeats but may differ in a detail not shown here. Equal entries are not always repeated.

Molecular target: Sodium-dependent phosphate transport protein 2A (Homo sapiens) (UniProt Q06495)
Assay: PubChem AID 1794813
Settings: HEK293 JumpIn SLC34A1, FLIPR membrane potential dye

Sodium-dependent phosphate transport protein 2A (Homo sapiens), sequence (Q06495 whole entry, looked up): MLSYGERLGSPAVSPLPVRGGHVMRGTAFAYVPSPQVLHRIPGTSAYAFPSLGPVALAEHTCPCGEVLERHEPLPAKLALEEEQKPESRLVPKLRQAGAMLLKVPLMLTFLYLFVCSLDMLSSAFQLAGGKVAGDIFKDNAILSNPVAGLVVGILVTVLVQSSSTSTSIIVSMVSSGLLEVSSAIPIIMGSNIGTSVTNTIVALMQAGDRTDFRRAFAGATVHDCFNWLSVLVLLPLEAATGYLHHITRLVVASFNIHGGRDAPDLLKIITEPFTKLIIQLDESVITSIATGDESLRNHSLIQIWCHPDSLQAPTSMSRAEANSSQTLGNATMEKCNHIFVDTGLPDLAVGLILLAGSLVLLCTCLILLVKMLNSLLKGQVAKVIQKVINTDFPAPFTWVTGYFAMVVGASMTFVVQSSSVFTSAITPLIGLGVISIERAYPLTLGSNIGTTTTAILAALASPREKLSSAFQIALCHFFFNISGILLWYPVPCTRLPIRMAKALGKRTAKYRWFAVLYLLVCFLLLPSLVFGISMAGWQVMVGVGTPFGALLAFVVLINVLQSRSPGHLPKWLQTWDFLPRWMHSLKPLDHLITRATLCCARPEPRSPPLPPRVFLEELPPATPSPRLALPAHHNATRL

Structure (SMILES): O=P(O)(O)O
- EC50 (substrate-evoked depolarization, activation): 32 µM and 39 µM
